Patent US20020052295A1, “Diacyl derivatives of propylene diamine having herbicidal activity” (priority 1999, published 2002)

Legend:
monocotyledonous species = experiment: Greenhouse post-emergence test in combination with glyphosate, monocotyledonous species; type: in vivo; conditions: glyphosate isopropylammonium salt alone at 1000 g a.e./ha
From the text: (§1) A pre-prepared topsoil mixture (described above) was placed in a pot and compacted to a depth of 1.0 to 1.25 cm from the top of the pot. Seeds of each of several monocotyledonous and dicotyledonous annual plant species were placed on top of the soil The seeds were covered with a mixture of 50% topsoil and 50% Rediearth™ in sufficient quantity to level-fill the pots. The pots were then placed on a greenhouse bench and subirrigated as needed until plants growing from the seeds had emerged and reached a suitable growth stage for post-emergence treatment, typically 9 to 14 days after planting.
(§2) A known amount of each test compound dissolved or suspended in an appropriate organic solvent was diluted with a 50:50 mix of acetone and water and applied to the plants by spraying with a standard spray nozzle in a spray volume of 3,100 l/ha at a spray pressure of […] (30 psig). Control plants were not sprayed.
(§3) After treatment the plants were placed in a greenhouse with a 30/21° C. day/night temperature regime and were subsequently watered as needed for growth. Approximately 14 days after treatment, the plants were observed and herbicidal efficacy recorded as percent inhibition by comparison with control plants.
(§4) In a greenhouse post-emergence test conducted according to the procedure described hereinabove, R-2-fluoro-3-trifluoromethyl-N-[1-methyl-2-(3-trifluoromethyl)phenylcarbonylamino]ethylbenzamide (the compound of Example 13) was applied at 0, 64, 125 and 250 g/ha in combination with glyphosate isopropylammonium salt at 1000 g a.e./ha. The glyphosate herbicide alone gave 72% control of dicotyledonous species and 84% control of monocotyledonous species. […] At 250 g/ha, addition of the compound of Example 13 gave 93% control of dicotyledonous species, but reduced control of monocotyledonous species to 73%.

dicotyledonous species = experiment: Greenhouse post-emergence test in combination with glyphosate, dicotyledonous species; type: in vivo; conditions: glyphosate isopropylammonium salt alone at 1000 g a.e./ha
From the text: as §1, §2, §3, §4

PANDI [1] = experiment: Post-emergence herbicidal activity on PANDI (fall panicum); type: in vivo, Panicum dichotomiflorum; conditions: post-emergence spray; lowest tested rate with 80% or greater inhibition; about 14 days after treatment
From the text: (§5) All such uses, and the biological activity enabling such uses, are embraced by the term “herbicidal” herein. Tables 15 and 16 summarize results of tests conducted as described below to determine the pre-emergence herbicidal activity, in the form of a GR80 value, of illustrative compounds of this invention. […] Where herbicidal activity was evident but 80% inhibition was not achieved at the highest rate tested (typically 1000 g/ha), an asterisk (*) is shown in the following tables. Herbicidal activity evident in the form of symptoms of phytotoxicity, in the absence of at least 80% inhibition at any rate, is indicated in the tables by “phyto”. A blank cell in the following tables indicates no herbicidal or phytotoxic response at any rate tested.
(§6) In another set of tests, the post-emergence activity of compounds of this invention was evaluated on the cool season species listed above. The following procedure was used.
as §1, §2, §3

PANMI [2] = experiment: Pre-emergence herbicidal activity on PANMI (wild proso millet); type: in vivo, Panicum miliaceum; conditions: lowest tested rate giving 80% or greater inhibition, approx. 14 days after planting and treating, greenhouse
Procedure, shortened: (§7)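 Steps: sterilized fertilized topsoil potted; seeds sown, covered; compound (50:50 acetone/water dilution) applied to soil surface; 0.64 cm overhead irrigation; greenhouse 30/21 °C day/night; % inhibition vs untreated scored at ~14 d; GR80 calculated.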

CIRAR [3] = experiment: Pre-emergence herbicidal activity on CIRAR (canada thistle, seedling); type: in vivo, Cirsium arvense; conditions: lowest tested rate giving 80% or greater inhibition, approx. 14 days after planting and treating, greenhouse
Procedure, shortened: as §7

DATST [4] = experiment: Pre-emergence herbicidal activity on DATST (jimsonweed); type: in vivo, Datura stramonium; conditions: lowest tested rate giving 80% or greater inhibition, approx. 14 days after planting and treating, greenhouse
Procedure, shortened: as §7

BRAPP [5] = experiment: Pre-emergence herbicidal activity on BRAPP (broadleaf signalgrass); type: in vivo, Brachiaria platyphylla; conditions: lowest tested rate giving 80% or greater inhibition, approx. 14 days after planting and treating, greenhouse
Procedure, shortened: as §7

PANDI [6] = experiment: Pre-emergence herbicidal activity on PANDI (fall panicum); type: in vivo, Panicum dichotomiflorum; conditions: lowest tested rate giving 80% or greater inhibition, approx. 14 days after planting and treating, greenhouse
Procedure, shortened: as §7

DATST [7] = experiment: Post-emergence herbicidal activity on DATST (jimsonweed); type: in vivo, Datura stramonium; conditions: post-emergence spray; lowest tested rate with 80% or greater inhibition; about 14 days after treatment
From the text: as §5, §6, §1, §2, §3

CONAR [8] = experiment: Pre-emergence herbicidal activity on CONAR (field bindweed); type: in vivo, Convolvulus arvensis; conditions: lowest tested rate giving 80% or greater inhibition, approx. 14 days after planting and treating, greenhouse
Procedure, shortened: as §7

SETFA [9] = experiment: Post-emergence herbicidal activity on SETFA (giant foxtail); type: in vivo, Setaria faberi; conditions: post-emergence spray; lowest tested rate with 80% or greater inhibition; about 14 days after treatment
From the text: as §5, §6, §1, §2, §3

ECHCG [10] = experiment: Post-emergence herbicidal activity on ECHCG (barnyardgrass); type: in vivo, Echinochloa crus-galli; conditions: post-emergence spray; lowest tested rate with 80% or greater inhibition; about 14 days after treatment
From the text: as §5, §6, §1, §2, §3

AMARE [11] = experiment: Pre-emergence herbicidal activity on AMARE (redroot pigweed); type: in vivo, Amaranthus retroflexus; conditions: lowest tested rate giving 80% or greater inhibition, approx. 14 days after planting and treating, greenhouse
Procedure, shortened: as §7

SETFA [12] = experiment: Pre-emergence herbicidal activity on SETFA (giant foxtail); type: in vivo, Setaria faberi; conditions: lowest tested rate giving 80% or greater inhibition, approx. 14 days after planting and treating, greenhouse
Procedure, shortened: as §7

CIRAR [13] = experiment: Post-emergence herbicidal activity on CIRAR (canada thistle, seedling); type: in vivo, Cirsium arvense; conditions: post-emergence spray; lowest tested rate with 80% or greater inhibition; about 14 days after treatment
From the text: as §5, §6, §1, §2, §3

SORVU = experiment: Post-emergence herbicidal activity on SORVU (shattercane); type: in vivo, Sorghum vulgare; conditions: post-emergence spray; lowest tested rate with 80% or greater inhibition; about 14 days after treatment
From the text: as §5, §6, §1, §2, §3

PANMI [14] = experiment: Post-emergence herbicidal activity on PANMI (wild proso millet); type: in vivo, Panicum miliaceum; conditions: post-emergence spray; lowest tested rate with 80% or greater inhibition; about 14 days after treatment
POROL [15] = experiment: Pre-emergence herbicidal activity on POROL (common purslane); type: in vivo, Portulaca oleracea; conditions: lowest tested rate giving 80% or greater inhibition, approx. 14 days after planting and treating, greenhouse
Procedure, shortened: as §7

ECHCG [16] = experiment: Pre-emergence herbicidal activity on ECHCG (barnyardgrass); type: in vivo, Echinochloa crus-galli; conditions: lowest tested rate giving 80% or greater inhibition, approx. 14 days after planting and treating, greenhouse
Procedure, shortened: as §7

SOLNI [17] = experiment: Pre-emergence herbicidal activity on SOLNI (black nightshade); type: in vivo, Solanum nigrum; conditions: lowest tested rate giving 80% or greater inhibition, approx. 14 days after planting and treating, greenhouse
Procedure, shortened: as §7

CHEAL [18] = experiment: Pre-emergence herbicidal activity on CHEAL (common lambsquarters); type: in vivo, Chenopodium album; conditions: lowest tested rate giving 80% or greater inhibition, approx. 14 days after planting and treating, greenhouse
Procedure, shortened: as §7

POROL [19] = experiment: Post-emergence herbicidal activity on POROL (common purslane; table head prints PORAL); type: in vivo, Portulaca oleracea; conditions: post-emergence spray; lowest tested rate with 80% or greater inhibition; about 14 days after treatment
From the text: as §5, §6, §1, §2, §3

AMARE [20] = experiment: Post-emergence herbicidal activity on AMARE (redroot pigweed); type: in vivo, Amaranthus retroflexus; conditions: post-emergence spray; lowest tested rate with 80% or greater inhibition; about 14 days after treatment
From the text: as §5, §6, §1, §2, §3

CONAR [21] = experiment: Post-emergence herbicidal activity on CONAR (field bindweed); type: in vivo, Convolvulus arvensis; conditions: post-emergence spray; lowest tested rate with 80% or greater inhibition; about 14 days after treatment
From the text: as §5, §6, §1, §2, §3

DIGSA [22] = experiment: Post-emergence herbicidal activity on DIGSA (large crabgrass); type: in vivo, Digitaria sanguinalis; conditions: post-emergence spray; lowest tested rate with 80% or greater inhibition; about 14 days after treatment
SORHA [23] = experiment: Pre-emergence herbicidal activity on SORHA (johnsongrass, seedling); type: in vivo, Sorghum halepense; conditions: lowest tested rate giving 80% or greater inhibition, approx. 14 days after planting and treating, greenhouse
Procedure, shortened: as §7

SORHA [24] = experiment: Post-emergence herbicidal activity on SORHA (johnsongrass, seedling); type: in vivo, Sorghum halepense; conditions: post-emergence spray; lowest tested rate with 80% or greater inhibition; about 14 days after treatment
From the text: as §5, §6, §1, §2, §3

BRAPP [25] = experiment: Post-emergence herbicidal activity on BRAPP (broadleaf signalgrass); type: in vivo, Brachiaria platyphylla; conditions: post-emergence spray; lowest tested rate with 80% or greater inhibition; about 14 days after treatment
From the text: as §5, §6, §1, §2, §3

DIGSA [26] = experiment: Pre-emergence herbicidal activity on DIGSA (large crabgrass); type: in vivo, Digitaria sanguinalis; conditions: lowest tested rate giving 80% or greater inhibition, approx. 14 days after planting and treating, greenhouse
Procedure, shortened: as §7

ABUTH = experiment: Post-emergence herbicidal activity on ABUTH (velvetleaf); type: in vivo, Abutilon theophrasti; conditions: post-emergence spray; lowest tested rate with 80% or greater inhibition; about 14 days after treatment
From the text: as §5, §6, §1, §2, §3

SOLNI [27] = experiment: Post-emergence herbicidal activity on SOLNI (black nightshade); type: in vivo, Solanum nigrum; conditions: post-emergence spray; lowest tested rate with 80% or greater inhibition; about 14 days after treatment
From the text: as §5, §6, §1, §2, §3

CHEAL [28] = experiment: Post-emergence herbicidal activity on CHEAL (common lambsquarters); type: in vivo, Chenopodium album; conditions: post-emergence spray; lowest tested rate with 80% or greater inhibition; about 14 days after treatment
From the text: as §5, §6, §1, §2, §3

## glyphosate isopropylammonium salt [reference compound]
Monocotyledonous species
  control of monocotyledonous species: 84%
Dicotyledonous species
  control of dicotyledonous species: 72%

## C[C@H](CNC(=O)c1cccc(C(F)(F)F)c1)NC(=O)Oc1ccc(F)cc1 [Example 230]
PANDI [1]
  Post-emergence activity (GR80) PANDI: [empty]
PANMI [2]
  Pre-emergence activity (GR80) on PANMI: phyto
CIRAR [3]
  Pre-emergence activity (GR80) on CIRAR: 750 g/ha
DATST [4]
  Pre-emergence activity (GR80) on DATST: 750 g/ha
BRAPP [5]
  Pre-emergence activity (GR80) on BRAPP: phyto
PANDI [6]
  Pre-emergence activity (GR80) on PANDI: 1000 g/ha
DATST [7]
  Post-emergence activity (GR80) DATST: phyto
CONAR [8]
  Pre-emergence activity (GR80) on CONAR: phyto
SETFA [9]
  Post-emergence activity (GR80) SETFA: [empty]
ECHCG [10]
  Post-emergence activity (GR80) ECHCG: [empty]
AMARE [11]
  Pre-emergence activity (GR80) on AMARE: 500 g/ha
SETFA [12]
  Pre-emergence activity (GR80) on SETFA: * (Where herbicidal activity was evident but 80% inhibition was not achieved at the highest rate tested (typically 1000 g/ha), an asterisk (*) is shown)
CIRAR [13]
  Post-emergence activity (GR80) CIRAR: [empty]
SORVU
  Post-emergence activity (GR80) SORVU: [empty]
PANMI [14]
  Post-emergence activity (GR80) PANMI: [empty]
POROL [15]
  Pre-emergence activity (GR80) on PORAL: 500 g/ha
ECHCG [16]
  Pre-emergence activity (GR80) on ECHCG: phyto
SOLNI [17]
  Pre-emergence activity (GR80) on SOLNI: * (Where herbicidal activity was evident but 80% inhibition was not achieved at the highest rate tested (typically 1000 g/ha), an asterisk (*) is shown)
CHEAL [18]
  Pre-emergence activity (GR80) on CHEAL: 1000 g/ha
POROL [19]
  Post-emergence activity (GR80) PORAL: phyto
AMARE [20]
  Post-emergence activity (GR80) AMARE: phyto
CONAR [21]
  Post-emergence activity (GR80) CONAR: phyto
DIGSA [22]
  Post-emergence activity (GR80) DIGSA: phyto
SORHA [23]
  Pre-emergence activity (GR80) on SORHA: phyto
SORHA [24]
  Post-emergence activity (GR80) SORHA: [empty]
BRAPP [25]
  Post-emergence activity (GR80) BRAPP: [empty]
DIGSA [26]
  Pre-emergence activity (GR80) on DIGSA: 750 g/ha
ABUTH
  Post-emergence activity (GR80) ABUTH: [empty]
SOLNI [27]
  Post-emergence activity (GR80) SOLNI: [empty]
CHEAL [28]
  Post-emergence activity (GR80) CHEAL: phyto
